The text below walks through data of ChEMBL document CHEMBL1148625, “3-(1,1-dioxo-2H-(1,2,4)-benzothiadiazin-3-yl)-4-hydroxy-2(1H)-quinolinones, potent inhibitors of hepatitis C virus RNA-dependent RNA polymerase” (J Med Chem, 2006).

The target in this test is RNA-directed RNA polymerase (Hepacivirus hominis, UniProt O39930). As to the kind of experiment: Inhibitory activity against HCV delta 21 NS5B RNA polymerase by SPA assay. The arrangement: species or system Hepatitis C virus subtype 1b.
RNA-directed RNA polymerase, sequence (O39930 whole entry): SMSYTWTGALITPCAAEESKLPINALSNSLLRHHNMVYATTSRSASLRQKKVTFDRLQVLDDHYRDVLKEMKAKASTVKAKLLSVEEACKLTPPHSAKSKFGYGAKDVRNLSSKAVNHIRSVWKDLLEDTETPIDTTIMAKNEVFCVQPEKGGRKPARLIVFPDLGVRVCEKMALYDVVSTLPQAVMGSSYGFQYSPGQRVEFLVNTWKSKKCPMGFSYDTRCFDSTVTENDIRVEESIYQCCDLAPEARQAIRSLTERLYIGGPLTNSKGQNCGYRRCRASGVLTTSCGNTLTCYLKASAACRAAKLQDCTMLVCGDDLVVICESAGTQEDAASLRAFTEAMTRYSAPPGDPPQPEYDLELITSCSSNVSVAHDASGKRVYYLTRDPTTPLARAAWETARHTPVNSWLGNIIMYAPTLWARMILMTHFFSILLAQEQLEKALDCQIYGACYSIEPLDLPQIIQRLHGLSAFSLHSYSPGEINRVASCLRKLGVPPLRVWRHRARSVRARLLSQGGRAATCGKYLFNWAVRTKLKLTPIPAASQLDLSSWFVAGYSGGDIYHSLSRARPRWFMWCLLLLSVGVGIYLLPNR

Molecule `NCCCCn1c(=O)c(C2=NS(=O)(=O)c3ccccc3N2)c(O)c2ccccc21` gave an IC50 above 10000 nM.

`O=c1c(C2=NS(=O)(=O)c3ccccc3N2)c(O)c2ccccc2n1Cc1ccccn1` had an IC50 of 2690 nM.

Turning to `CC(Br)CCn1c(=O)c(C2=Nc3ccccc3S(=O)(=O)N2)c(O)c2ccccc21` (stereo unspecified), the IC50 came to 290 nM.

For the molecule `CC(C)CCn1c(=O)c(C2=Nc3ccccc3S(=O)(=O)N2)c(O)c2cc(Br)ccc21`, the IC50 came to 205 nM.

In the case of `CC(C)CCn1c(=O)c(C2=Nc3ccccc3S(=O)(=O)N2)c(O)c2cc([N+](=O)[O-])ccc21`, the half-inhibitory concentration (IC50) was 455 nM.

On to `COc1ccc2c(c1)c(O)c(C1=NS(=O)(=O)c3ccccc3N1)c(=O)n2CCC(C)C`, for which the IC50 is 23 nM.

Turning to `O=c1c(C2=NS(=O)(=O)c3ccccc3N2)c(O)c2ccccc2n1CCO`, the half-maximal inhibitory concentration (IC50) is above 10000 nM.

Take `Cc1nc(Cn2c(=O)c(C3=Nc4ccccc4S(=O)(=O)N3)c(O)c3ccccc32)cs1`: it took 304 nM to reach half-maximal inhibition (IC50).

Molecule `CC(C)CCn1c(=O)c(C2=Nc3ccccc3S(=O)(=O)N2)c(O)c2ccc(Br)cc21` gave a concentration for half-maximal inhibition (IC50) above 10000 nM.

Take `O=C(O)CCCn1c(=O)c(C2=Nc3ccccc3S(=O)(=O)N2)c(O)c2ccccc21`: the IC50 was above 10000 nM.

Turning to `Cc1cccc2c1c(O)c(C1=Nc3ccccc3S(=O)(=O)N1)c(=O)n2CCC(C)C`, 206 nM corresponded to half-maximal inhibition (IC50).

With `CCCCCn1c(=O)c(C2=Nc3ccccc3S(=O)(=O)N2)c(O)c2ccccc21`, the IC50 is 80 nM.

Molecule `CC(C)=CCn1c(=O)c(C2=Nc3ccccc3S(=O)(=O)N2)c(O)c2ccccc21` gave an IC50 of 289 nM.

In turn, `O=c1c(C2=Nc3ccccc3S(=O)(=O)N2)c(O)c2ccccc2n1CCc1cccs1` registered an IC50 above 10000 nM.

Molecule `C=CCn1c(=O)c(C2=Nc3ccccc3S(=O)(=O)N2)c(O)c2ccccc21` showed an IC50 above 10000 nM.

Take `NC(=O)CCCn1c(=O)c(C2=Nc3ccccc3S(=O)(=O)N2)c(O)c2ccccc21`: the IC50 was above 10000 nM.

`O=c1c(C2=Nc3ccccc3S(=O)(=O)N2)c(O)c2ccccc2n1Cc1ccccc1` returned an IC50 of 82 nM.

In turn, `CCOC(=O)c1ccc2c(O)c(C3=Nc4ccccc4S(=O)(=O)N3)c(=O)n(CCC(C)C)c2c1` displayed an IC50 above 10000 nM.

Molecule `O=c1c(C2=Nc3ccccc3S(=O)(=O)N2)c(O)c2ccccc2n1CC1CC1` displayed an IC50 of 78 nM.

Take `O=c1c(C2=Nc3ccccc3S(=O)(=O)N2)c(O)c2ccccc2n1-c1ccccc1`: the IC50 was above 10000 nM.

As for `O=S1(=O)N=C(c2c(O)nc3ccccc3c2O)Nc2ccccc21`, the IC50 was above 10000 nM.

Take `CC(C)CCn1c(=O)c(C2=Nc3ccccc3S(=O)(=O)N2)c(O)c2c(-c3ccccc3)cccc21`: half-maximal inhibition (IC50) was put at 144 nM.

`COCCn1c(=O)c(C2=Nc3ccccc3S(=O)(=O)N2)c(O)c2ccccc21` registered an IC50 of 819 nM.

Consider `C#CCCn1c(=O)c(C2=NS(=O)(=O)c3ccccc3N2)c(O)c2ccccc21`, for which 118 nM corresponded to half-maximal inhibition (IC50).

The molecule `CC(C)CCn1c(=O)c(C2=NS(=O)(=O)c3ccccc3N2)c(O)c2c([N+](=O)[O-])cccc21` displayed an IC50 of 338 nM.

Turning to `C/C=C/Cn1c(=O)c(C2=Nc3ccccc3S(=O)(=O)N2)c(O)c2ccccc21`, the midpoint of inhibition, the IC50, lay at 150 nM.

`O=c1c(C2=NS(=O)(=O)c3ccccc3N2)c(O)c2ccccc2n1CCCc1ccccc1` had an IC50 above 10000 nM.

The molecule `O=c1c(C2=NS(=O)(=O)c3ccccc3N2)c(O)c2ccccc2n1CC1CCCO1` (stereo unspecified) showed a concentration for half-maximal inhibition (IC50) of 528 nM.

`CCOC(=O)CNc1ccc2c(c1)c(O)c(C1=Nc3ccccc3S(=O)(=O)N1)c(=O)n2CCC(C)C` showed an IC50 of 115 nM.

Consider `CC(C)CCn1c(=O)c(C2=NS(=O)(=O)c3ccccc3N2)c(O)c2ccc(/C=C/C(N)=O)cc21`, for which the IC50 was above 10000 nM.

For `O=c1c(C2=NS(=O)(=O)c3ccccc3N2)c(O)c2ccccc2n1Cc1ccncc1`, the IC50 is 61 nM.

With `CCC(C)CCn1c(=O)c(C2=NS(=O)(=O)c3ccccc3N2)c(O)c2ccccc21` (stereo unspecified), inhibition was half-maximal at 65 nM (IC50).

As for `C[S+]([O-])CCn1c(=O)c(C2=NS(=O)(=O)c3ccccc3N2)c(O)c2ccccc21` (stereo unspecified), the IC50 worked out at 2540 nM.

In the case of `CC(C)CCn1c(=O)c(C2=NS(=O)(=O)c3ccccc3N2)c(N)c2ccccc21`, the IC50 was above 10000 nM.

With `CC(C)CCn1c(=O)c(C2=NS(=O)(=O)c3ccccc3N2)c(O)c2cc(I)ccc21`, the IC50 is above 10000 nM.

Take `CC(C)CCn1c(=O)c(C2=Nc3ccccc3S(=O)(=O)N2)c(O)c2cc(NCC(=O)O)ccc21`: it took 21 nM to reach half-maximal inhibition (IC50).

Regarding `O=c1c(C2=Nc3ccccc3S(=O)(=O)N2)c(O)c2ccccc2n1Cc1cccc(Br)c1`, inhibition was half-maximal at 36 nM (IC50).

As to `CC(C)CCn1c(=O)c(C2=Nc3ccccc3S(=O)(=O)N2)c(O)c2ccc(C(=O)O)cc21`, the IC50 was above 10000 nM.

Turning to `N#CCCCn1c(=O)c(C2=NS(=O)(=O)c3ccccc3N2)c(O)c2ccccc21`, 172 nM corresponded to half-maximal inhibition (IC50).

Regarding `CCCCn1c(=O)c(-c2nc3ccccc3[nH]2)c(O)c2ccccc21`, the IC50 is above 10000 nM.

The molecule `O=c1c(C2=Nc3ccccc3S(=O)(=O)N2)c(O)c2ccccc2n1CCCCO` gave a 50% inhibitory concentration (IC50) of 1300 nM.

As to `C#CCCCn1c(=O)c(C2=Nc3ccccc3S(=O)(=O)N2)c(O)c2ccccc21`, the half-maximal inhibitory concentration (IC50) was found to be 179 nM.

The molecule `CC(C)CCn1cc(C2=NS(=O)(=O)c3ccccc3N2)c(=O)c2ccccc21` gave an IC50 above 10000 nM.

In the case of `O=c1c(C2=Nc3ccccc3S(=O)(=O)N2)c(O)c2cccc(F)c2n1CCC1CC1`, the midpoint of inhibition, the IC50, lay at 90 nM.

Molecule `N#Cc1ccccc1Cn1c(=O)c(C2=Nc3ccccc3S(=O)(=O)N2)c(O)c2ccccc21` gave a half-maximal inhibitory concentration (IC50) of 780 nM.

`CCOC(=O)n1c(=O)c(C2=NS(=O)(=O)c3ccccc3N2)c(O)c2ccccc21` displayed a half-inhibitory concentration (IC50) of 2040 nM.

Molecule `CC(C)CCn1c(=O)c(C2=Nc3ccccc3S(=O)(=O)N2)c(O)c2ccc(F)cc21` came in with an IC50 of 554 nM.

In the case of `CCOC(=O)CCCn1c(=O)c(C2=NS(=O)(=O)c3ccccc3N2)c(O)c2ccccc21`, the IC50 was above 10000 nM.

`O=c1c(C2=NS(=O)(=O)c3ccccc3N2)c(O)c2ccccc2n1CCCC(F)(F)F` returned an IC50 of 106 nM.

With `CC(C)Cn1c(=O)c(C2=Nc3ccccc3S(=O)(=O)N2)c(O)c2ccccc21`, half-maximal inhibition (IC50) required 108 nM.

In the case of `CCOC(=O)c1ccc2c(c1)c(O)c(C1=NS(=O)(=O)c3ccccc3N1)c(=O)n2CCC(C)C`, the IC50 was above 10000 nM.

`CS(=O)(=O)CCn1c(=O)c(C2=Nc3ccccc3S(=O)(=O)N2)c(O)c2ccccc21` yielded an IC50 of 2320 nM.

Molecule `CC(C)(C)CCn1c(=O)c(C2=NS(=O)(=O)c3ccccc3N2)c(O)c2ccccc21` had an IC50 of 21 nM.

The molecule `CC(C)CCn1c(=O)c(C2=Nc3ccccc3S(=O)(=O)N2)c(O)c2cc(N)ccc21` registered an IC50 of 62 nM.

Regarding `O=c1c(C2=NS(=O)(=O)c3ccccc3N2)c(O)c2ccccc2n1CCc1ccsc1`, the IC50 was above 10000 nM.

`CC(C)CCn1c(=O)c(C2=Nc3ccccc3S(=O)(=O)N2)c(O)c2cc(O)ccc21`: the IC50 is 198 nM.

With `CC(C)CCn1c(=O)c(C2=NS(=O)(=O)c3ccccc3N2)c(O)c2cc(C(=O)O)ccc21`, the IC50 was found to be 1040 nM.

In the case of `CC(C)CCn1c(=O)c(C2=Nc3ccccc3S(=O)(=O)N2)cc2ccccc21`, the IC50 was above 10000 nM.

Turning to `O=c1c(C2=NS(=O)(=O)c3ccccc3N2)c(O)c2ccccc2n1CCCO`, the midpoint of inhibition, the IC50, lay at 2810 nM.

The molecule `O=c1c(C2=NS(=O)(=O)c3ccccc3N2)c(O)c2ccccc2n1Cc1ccc(Br)cc1` came in with a 50% inhibitory concentration (IC50) of 95 nM.

For `O=c1c(C2=NS(=O)(=O)c3ccccc3N2)c(O)c2ccccc2n1CC1CCCC1`, the IC50 stood at 132 nM.

By IC50 is commonly meant the concentration at which inhibition is half-maximal.
